Laboratory results taken from patent US10604554B2, “Double-acylated GLP-1 derivatives” (Novo Nordisk A/S, priority 2012, dated 2020).
pEC50, pIC50: −log10 of the molar value.

Experiments:
human GLP-1 receptor [1] = molecular target: T1, human GLP-1 receptor (Homo sapiens, UniProt P43220); assay: In vitro potency (CRE luciferase; whole cells); format: cell-based; design: EC50/pM (ratio 1% HSA/0% HSA): unit not given here; settings: for pEC50: BHK cells; for EC50/pM (ratio 1% HSA/0% HSA): ratio of EC50 at 1% HSA to EC50 at 0% HSA
T1 construct: expressed in transfected cells; host or cells: BHK cells, clone FCW467-12A/KZ10-1 (parent line BHKTS13), further transfected with CRE luciferase
T1 sequence (P43220 24-463): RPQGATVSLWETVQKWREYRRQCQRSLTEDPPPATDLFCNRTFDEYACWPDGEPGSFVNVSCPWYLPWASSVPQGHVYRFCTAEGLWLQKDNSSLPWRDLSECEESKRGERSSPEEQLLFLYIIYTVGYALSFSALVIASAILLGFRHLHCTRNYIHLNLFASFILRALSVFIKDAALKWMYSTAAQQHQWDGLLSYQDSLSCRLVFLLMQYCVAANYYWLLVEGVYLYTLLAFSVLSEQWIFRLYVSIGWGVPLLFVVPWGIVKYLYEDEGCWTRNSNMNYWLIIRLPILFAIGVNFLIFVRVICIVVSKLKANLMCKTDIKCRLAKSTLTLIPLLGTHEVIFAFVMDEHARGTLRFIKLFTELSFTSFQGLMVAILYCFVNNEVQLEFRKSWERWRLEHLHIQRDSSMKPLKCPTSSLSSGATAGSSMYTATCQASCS
Procedure: The purpose of this example is to test the activity, or potency, of the GLP-1 derivatives in vitro. The in vitro potency is the measure of human GLP-1 receptor activation in a whole cell assay.
In vitro potency was determined by measuring the response of human GLP-1 receptor in a reporter gene assay. The assay was performed in a stably transfected BHK cell line that expresses the human GLP-1 receptor and contains the DNA for the cAMP response element (CRE) coupled to a promoter and the gene for firefly luciferase (CRE luciferase). When the human GLP-1 receptor was activated it results in the production of cAMP, which in turn results in the luciferase protein being expressed. When assay incubation was completed the luciferase substrate (luciferin) was added and the enzyme converts luciferin to oxyluciferin and produces bioluminescence. The luminescence was measured and was the readout for the assay.
An increase of the in vitro potency, EC50 value, in the presence of serum albumin indicates an affinity to serum albumin and represents a method to predict a protracted pharmacokinetic profile of the test substance in animal models.
The cells were cultured at 5% CO2 in cell culture medium. They were aliquoted and stored in liquid nitrogen. Before each assay an aliquot was taken up and washed twice in PBS before being suspended at the desired concentration in the assay specific buffer.
The following chemicals were used in the assay: Pluronic F-68 (10%) (Gibco 2404), human serum albumin (HSA) (Sigma A9511), ovalbumin (Sigma A5503), DMEM w/o phenol red (Gibco 11880-028), 1 M Hepes (Gibco 15630), Glutamax 100× (Gibco 35050) and steadylite plus (PerkinElmer 6016757).
1) Cell stocks were thawed in a 37° C. water bath.
2) Cells were washed three times in PBS.
3) The cells were counted and adjusted to 5×10^3 cells/50 μl (1×10^5 cells/ml) in assay medium. A 50 μl aliquot of cells was transferred to each well in the assay plate.
4) Stocks of the test compounds and reference compounds were diluted to a concentration of 0.2 μM in 0% assay buffer for the 0% HSA CRE luciferase assay and 1% assay buffer for the HSA CRE luciferase assay. […] 5) A 50 μl aliquot of compound or blank was transferred in triplicate from the dilution plate to the assay plate. […] 7) The assay plate was removed from the incubator and allowed to stand at room temperature for 15 min. 8) A 100 μl aliquot of steadylite plus reagent was added to each well of the assay plate (reagent was light sensitive). 9) Each assay plate was covered with aluminum foil to protect it from light and shaken for 30 min at room temperature. 10) Each assay plate was read in a Packard TopCount NXT instrument. Calculations and Results
The data from the TopCount instrument were transferred to GraphPad Prism software. The software averages the values for each replicate and performs a non-linear regression.

human GLP-1 receptor [2] = molecular target: T1, human GLP-1 receptor; assay: GLP-1 receptor binding (SPA, displacement of 125I-GLP-1)
Procedure: The purpose of this experiment is to investigate the binding to the GLP-1 receptor of the GLP-1 derivatives, and how the binding is potentially influenced by the presence of albumin. This is done in an in vitro experiment as described below.
In order to test the binding of the derivatives to albumin, the assay was performed with a low concentration of albumin (0.001%—corresponding to the residual amount thereof in the tracer), as well as with a high concentration of albumin (2.0% added). A shift in the binding affinity, IC50, is an indication that the peptide in question binds to albumin, and thereby a prediction of a potential protracted pharmacokinetic profile of the peptide in question in animal models.
Species (in vitro): Hamster
Biological End Point: Receptor Binding
A stable transfected cell line and a high expressing clone were selected for screening. The cells were grown at 5% CO2 in DMEM, 10% FCS, 1% Pen/Strep (Penicillin/Streptomycin) and 1.0 mg/ml of the selection marker G418.
The cells (approx. 80% confluence) were washed twice in PBS and harvested with Versene (aqueous solution of the tetrasodium salt of ethylenediaminetetraacetic acid), following which they were separated by centrifugation at 1000 rpm for 5 min. The cells/cell pellet must be kept on ice to the extent possible in the subsequent steps. The cell pellet was homogenised with Ultrathurrax for 20-30 seconds in a suitable amount of Buffer 1 (depending on the amount of cells, but e.g. 10 ml). The homogenate was centrifuged at 20000 rpm for 15 minutes. The pellet was resuspended (homogenised) in 10 ml Buffer 2 and re-centrifuged. This step was repeated once more. The resulting pellet was resuspended in Buffer 2, and the protein concentration was determined. The membranes were stored at minus 80° C.
Buffer 1:20 mM Na-HEPES+10 mM EDTA, pH 7.4
Buffer 2:20 mM Na-HEPES+0.1 mM EDTA, pH 7.4
Test compounds, membranes, SPA-particles and [^125I]-GLP-1(7-36)NH2 were diluted in assay buffer. 50 ul (micro liter) HSA (“high albumin” experiment containing 2% HSA), or buffer (“low albumin” experiment containing 0.001% HSA) was added to Optiplate, and 25 ul of test compounds were added. 5-10 ug membrane protein/sample was added (50 ul) corresponding to 0.1-0.2 mg protein/ml (to be preferably optimised for each membrane preparation). SPA-particles (Wheatgerm agglutinin SPA beads, Perkin Elmer, # RPNQ0001) were added in an amount of 0.5 mg/well (50 ul). The incubation was started with [^125I]-GLP-1]-(7-36)NH2 (final concentration 0.06 nM corresponding to 49.880 DPM, 25 ul). The plates were sealed with PlateSealer and incubated for 120 minutes at 30° C. while shaking. The plates were centrifuged (1500 rpm, 10 min) and counted in Topcounter.

[3] = In vitro potency (CRE luciferase) EC50 (1% HSA), 1% HSA
[4] = Receptor binding affinity IC50 (high HSA), 2.0% HSA (high albumin)
[5] = Receptor binding affinity IC50 (low HSA), 0.001% HSA (low albumin)

SMILES	pEC50 (human GLP-1 receptor [1]; [3])	EC50/pM (ratio 1% HSA/0% HSA) (human GLP-1 receptor [1])	pIC50 (human GLP-1 receptor [2]; [4])	pIC50 (human GLP-1 receptor [2]; [5])	pEC50 (human GLP-1 receptor [1]; In vitro potency (CRE luciferase) EC50 (0% HSA), 0% HSA)
CC[C@H](C)[C@H](NC(=O)[C@H](Cc1ccccc1)NC(=O)[C@H](CCC(=O)O)NC(=O)[C@H](CCCCNC(=O)[C@@H](N)CCCCNC(=O)[C@@H](N)CCCCNC(=O)CC[C@H](NC(=O)CCCCCCCCCCOc1ccc(C(=O)O)cc1)C(=O)O)NC(=O)[C@H](C)NC(=O)[C@H](C)NC(=O)[C@H](CCC(N)=O)NC(=O)CNC(=O)[C@H](CCC(=O)O)NC(=O)[C@H](CC(C)C)NC(=O)[C@H](Cc1ccc(O)cc1)NC(=O)[C@H](CO)NC(=O)[C@H](CO)NC(=O)[C@@H](NC(=O)[C@H](CC(=O)O)NC(=O)[C@H](CO)NC(=O)[C@@H](NC(=O)[C@H](Cc1ccccc1)NC(=O)[C@@H](NC(=O)CNC(=O)[C@H](CCC(=O)O)NC(=O)C(C)(C)NC(=O)[C@@H](N)Cc1c[nH]cn1)[C@@H](C)O)[C@@H](C)O)C(C)C)C(=O)N[C@@H](C)C(=O)N[C@@H](Cc1c[nH]cn1)C(=O)N[C@@H](CC(C)C)C(=O)N[C@H](C(=O)N[C@@H](CCC(N)=O)C(=O)NCC(=O)N[C@@H](CCCNC(=N)N)C(=O)N[C@@H](CCCCNC(=O)[C@@H](N)CCCCNC(=O)[C@@H](N)CCCCNC(=O)CC[C@H](NC(=O)CCCCCCCCCCOc1ccc(C(=O)O)cc1)C(=O)O)C(=O)O)C(C)C [Example 31, N^ε26-[(2S)-2-amino-6-[[(2S)-2-amino-6-[[(4S)-4-carboxy-4-[11-(4-carboxyphenoxy)undecanoylamino]butanoyl]amino]hexanoyl]amino]hexanoyl], N^ε37-[(2S)-2-amino-6-[[(2S)-2-amino-6-[[(4S)-4-carboxy-4-[11-(4-carboxyphenoxy)undecanoylamino]butanoyl]amino]hexanoyl]amino]hexanoyl]-[Aib^8,His^31,Gln^34,Lys^37]-GLP-1-(7-37)-peptide]	9.26	82	7.40	9.12	–
CC[C@H](C)[C@H](NC(=O)[C@H](Cc1ccccc1)NC(=O)[C@H](CCC(=O)O)NC(=O)[C@H](CCCCNC(=O)[C@@H](N)CCCCNC(=O)[C@@H](N)CCCCNC(=O)COCCOCCNC(=O)CC[C@H](NC(=O)CCCCCCCCCCOc1ccc(C(=O)O)cc1)C(=O)O)NC(=O)[C@H](C)NC(=O)[C@H](C)NC(=O)[C@H](CCC(N)=O)NC(=O)CNC(=O)[C@H](CCC(=O)O)NC(=O)[C@H](CC(C)C)NC(=O)[C@H](Cc1ccc(O)cc1)NC(=O)[C@H](CO)NC(=O)[C@H](CO)NC(=O)[C@@H](NC(=O)[C@H](CC(=O)O)NC(=O)[C@H](CO)NC(=O)[C@@H](NC(=O)[C@H](Cc1ccccc1)NC(=O)[C@@H](NC(=O)CNC(=O)[C@H](CCC(=O)O)NC(=O)C(C)(C)NC(=O)[C@@H](N)Cc1c[nH]cn1)[C@@H](C)O)[C@@H](C)O)C(C)C)C(=O)N[C@@H](C)C(=O)N[C@@H](Cc1c[nH]c2ccccc12)C(=O)N[C@@H](CC(C)C)C(=O)N[C@H](C(=O)N[C@@H](CCCNC(=N)N)C(=O)NCC(=O)N[C@@H](CCCNC(=N)N)C(=O)N[C@@H](CCCCNC(=O)[C@@H](N)CCCCNC(=O)[C@@H](N)CCCCNC(=O)COCCOCCNC(=O)CC[C@H](NC(=O)CCCCCCCCCCOc1ccc(C(=O)O)cc1)C(=O)O)C(=O)O)C(C)C [Example 34, N^ε26-[(2S)-2-amino-6-[[(2S)-2-amino-6-[[2-[2-[2-[[(4S)-4-carboxy-4-[11-(4-carboxyphenoxy)undecanoylamino]butanoyl]amino]ethoxy]ethoxy]acetyl]amino]hexanoyl]amino]hexanoyl], N^ε37-[(2S)-2-amino-6-[[(2S)-2-amino-6-[[2-[2-[2-[[(4S)-4-carboxy-4-[11-(4-carboxyphenoxy)undecanoylamino]butanoyl]amino]ethoxy]ethoxy]acetyl]amino]hexanoyl]amino]hexanoyl]-[Aib^8,Arg^34,Lys^37]-GLP-1-(7-37)-peptide]	10.23	9.1	7.35	9.92	11.10
